Results as given in the NIST ThermoML archive (doi:10.1007/s10765-009-0602-6).
± gives the expanded uncertainty stated by the source.

Assay: molar heat capacity at constant volume; xn = mol fraction of the nth substance listed
Details: Fluid (supercritical or subcritical phases), isochoric heat capacity, x1 = 0.2607

N [ammonia] + O
Details | molar heat capacity at constant volume [J/K/mol]
602.99 K, Mass density=227.54 kg/m3 | 102.11 ± 4.2
602.99 K, Mass density=230.31 kg/m3 | 103.53 ± 4.2
602.99 K, Mass density=311.19 kg/m3 | 92.66 ± 3.7
602.99 K, Mass density=342.18 kg/m3 | 84.9 ± 3.4
603.01 K, Mass density=218.92 kg/m3 | 92.95 ± 4.1
603.08 K, Mass density=205.58 kg/m3 | 71.27 ± 2.9
603.08 K, Mass density=214.83 kg/m3 | 91.92 ± 3.7
603.08 K, Mass density=218.92 kg/m3 | 93.46 ± 3.7
603.08 K, Mass density=224.53 kg/m3 | 102.11 ± 4.1
603.08 K, Mass density=227.54 kg/m3 | 94.83 ± 3.8
603.08 K, Mass density=230.31 kg/m3 | 97.85 ± 3.9
603.08 K, Mass density=311.19 kg/m3 | 88.26 ± 3.5
603.1 K, Mass density=214.83 kg/m3 | 85.33 ± 3.4
603.16 K, Mass density=205.58 kg/m3 | 70.95 ± 2.8
603.16 K, Mass density=227.54 kg/m3 | 89.2 ± 3.6
603.16 K, Mass density=230.31 kg/m3 | 92.7 ± 3.8
603.16 K, Mass density=311.19 kg/m3 | 87 ± 3.5
603.17 K, Mass density=224.53 kg/m3 | 98.9 ± 4
603.17 K, Mass density=243.98 kg/m3 | 88.9 ± 3.6
603.17 K, Mass density=260.02 kg/m3 | 88.9 ± 3.6
603.25 K, Mass density=205.58 kg/m3 | 73.52 ± 2.9
603.25 K, Mass density=224.53 kg/m3 | 95.33 ± 3.8
603.25 K, Mass density=227.54 kg/m3 | 90.78 ± 3.7
603.25 K, Mass density=311.19 kg/m3 | 89.86 ± 3.6
603.26 K, Mass density=230.31 kg/m3 | 91.49 ± 3.7
603.26 K, Mass density=243.98 kg/m3 | 86.61 ± 3.5
603.26 K, Mass density=260.02 kg/m3 | 86.61 ± 3.5
603.33 K, Mass density=224.53 kg/m3 | 94.9 ± 3.8
603.34 K, Mass density=205.58 kg/m3 | 69.68 ± 2.8
603.34 K, Mass density=243.98 kg/m3 | 87.69 ± 3.6
603.34 K, Mass density=260.02 kg/m3 | 87.69 ± 3.5
603.42 K, Mass density=205.58 kg/m3 | 67.87 ± 2.7
603.42 K, Mass density=224.53 kg/m3 | 95.2 ± 3.8
603.42 K, Mass density=311.19 kg/m3 | 88.62 ± 3.6
603.43 K, Mass density=243.98 kg/m3 | 88.17 ± 3.6
603.43 K, Mass density=260.02 kg/m3 | 88.17 ± 3.5
603.51 K, Mass density=205.58 kg/m3 | 72.19 ± 2.9
603.51 K, Mass density=243.98 kg/m3 | 85.63 ± 3.4
603.51 K, Mass density=260.02 kg/m3 | 85.63 ± 3.4
603.58 K, Mass density=243.98 kg/m3 | 83.27 ± 3.3
603.58 K, Mass density=260.02 kg/m3 | 83.27 ± 3.3
603.59 K, Mass density=205.58 kg/m3 | 69.01 ± 2.8
603.59 K, Mass density=227.54 kg/m3 | 89.22 ± 3.6
603.6 K, Mass density=214.83 kg/m3 | 85.67 ± 3.4
603.67 K, Mass density=230.31 kg/m3 | 84.99 ± 3.4
603.68 K, Mass density=214.83 kg/m3 | 84.57 ± 3.4
603.68 K, Mass density=227.54 kg/m3 | 87.34 ± 3.5
603.69 K, Mass density=243.98 kg/m3 | 85.13 ± 3.4
603.69 K, Mass density=260.02 kg/m3 | 85.13 ± 3.4
603.76 K, Mass density=227.54 kg/m3 | 89.27 ± 3.6
603.77 K, Mass density=214.83 kg/m3 | 81.81 ± 3.3
603.77 K, Mass density=218.92 kg/m3 | 89.86 ± 3.6
603.78 K, Mass density=243.98 kg/m3 | 82.7 ± 3.3
603.78 K, Mass density=260.02 kg/m3 | 82.7 ± 3.3
603.85 K, Mass density=224.53 kg/m3 | 94 ± 3.8
603.85 K, Mass density=227.54 kg/m3 | 85.53 ± 3.4
603.86 K, Mass density=218.92 kg/m3 | 86.91 ± 3.5
603.86 K, Mass density=260.02 kg/m3 | 83.32 ± 3.3
603.92 K, Mass density=214.83 kg/m3 | 84.57 ± 3.4
603.93 K, Mass density=227.54 kg/m3 | 84.41 ± 3.4
603.94 K, Mass density=224.53 kg/m3 | 94.9 ± 3.8
603.94 K, Mass density=230.31 kg/m3 | 86.75 ± 3.5
604.02 K, Mass density=224.53 kg/m3 | 91.83 ± 3.7
604.02 K, Mass density=227.54 kg/m3 | 87.55 ± 3.5
604.04 K, Mass density=214.83 kg/m3 | 80.85 ± 3.2
604.09 K, Mass density=214.83 kg/m3 | 82.56 ± 3.3
604.11 K, Mass density=224.53 kg/m3 | 94.23 ± 3.8
604.11 K, Mass density=227.54 kg/m3 | 83.91 ± 3.4
604.12 K, Mass density=230.31 kg/m3 | 81.87 ± 3.3
604.19 K, Mass density=224.53 kg/m3 | 93.25 ± 3.7
604.19 K, Mass density=227.54 kg/m3 | 84.67 ± 3.4
604.2 K, Mass density=214.83 kg/m3 | 82.1 ± 3.3
604.28 K, Mass density=214.83 kg/m3 | 79.51 ± 3.2
604.28 K, Mass density=224.53 kg/m3 | 89.96 ± 3.6
604.28 K, Mass density=227.54 kg/m3 | 86.4 ± 3.5
604.31 K, Mass density=230.31 kg/m3 | 80.09 ± 3.2
604.36 K, Mass density=224.53 kg/m3 | 91.15 ± 3.7
604.43 K, Mass density=230.31 kg/m3 | 85.06 ± 3.4
604.45 K, Mass density=224.53 kg/m3 | 90.84 ± 3.6
604.52 K, Mass density=230.31 kg/m3 | 82.6 ± 3.3
605.13 K, Mass density=329 kg/m3 | 85.88 ± 3.4
605.22 K, Mass density=329 kg/m3 | 88.22 ± 3.5
